Where two headings read alike, the source gives them in different places.
Experiments:
[1] = biological target: recombinant SphK1 (Homo sapiens (Human), UniProt Q9NYA1); assay: SphK1 scintillation proximity kinase assay
[2] = patients, 1-yr trial; cited from earlier work
[3] = biological target: recombinant SphK2 (Mus musculus, UniProt Q9JIA7); assay: SphK2 scintillation proximity kinase assay; type: biochemical; details: Estimated Ki values at recombinant SphK2; read-out: SphK2 (estimated Ki range)
Chain of recombinant SphK2 (Q9JIA7 whole entry, looked up): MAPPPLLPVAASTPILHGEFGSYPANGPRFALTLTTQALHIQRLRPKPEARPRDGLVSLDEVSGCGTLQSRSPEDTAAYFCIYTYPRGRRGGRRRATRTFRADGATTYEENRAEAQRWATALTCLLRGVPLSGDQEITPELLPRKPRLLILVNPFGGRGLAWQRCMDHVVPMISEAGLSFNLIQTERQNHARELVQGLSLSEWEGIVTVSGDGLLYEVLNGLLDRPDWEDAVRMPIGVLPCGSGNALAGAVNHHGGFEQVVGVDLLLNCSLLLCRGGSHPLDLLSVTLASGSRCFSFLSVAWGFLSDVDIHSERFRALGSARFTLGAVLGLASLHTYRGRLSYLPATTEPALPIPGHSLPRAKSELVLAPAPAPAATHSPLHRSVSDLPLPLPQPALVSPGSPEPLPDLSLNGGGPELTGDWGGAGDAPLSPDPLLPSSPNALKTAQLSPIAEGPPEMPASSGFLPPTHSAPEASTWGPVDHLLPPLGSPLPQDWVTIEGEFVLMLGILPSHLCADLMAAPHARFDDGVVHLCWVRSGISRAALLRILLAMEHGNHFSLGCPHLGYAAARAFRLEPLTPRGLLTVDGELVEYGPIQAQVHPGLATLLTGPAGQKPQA

[4] = read-out: SphK1 (estimated Ki range), Estimated Ki values at recombinant SphK1

Chain of recombinant SphK1 (Q9NYA1 whole entry): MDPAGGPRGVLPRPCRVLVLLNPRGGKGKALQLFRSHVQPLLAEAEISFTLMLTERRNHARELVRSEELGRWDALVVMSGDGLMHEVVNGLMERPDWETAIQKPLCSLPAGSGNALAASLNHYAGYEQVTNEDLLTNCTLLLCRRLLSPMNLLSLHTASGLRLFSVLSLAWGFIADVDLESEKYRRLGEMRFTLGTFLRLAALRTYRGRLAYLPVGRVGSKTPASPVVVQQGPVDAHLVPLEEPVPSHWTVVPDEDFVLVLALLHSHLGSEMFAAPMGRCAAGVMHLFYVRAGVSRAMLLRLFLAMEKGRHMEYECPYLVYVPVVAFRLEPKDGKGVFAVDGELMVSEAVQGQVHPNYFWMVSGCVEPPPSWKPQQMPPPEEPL

| Compound | Ki [1, 4] | also measured |
| --- | --- | --- |
| CCCCCCCCCCCCc1ccc(C(=O)NNC(=N)N)cc1 [Compound 1, 2-(4-dodecylbenzoyl)hydrazine carboximidamide] | > 10 µM |  |
| CCCCCCCCCCCCC/C=C/[C@@H](O)[C@@H](N)C(=N)N [Compound 2, (2S,3R,E)-2-amino-3-hydroxyoctadec-4-enimidamide] | > 10 µM |  |
| CCCCCCCCCCCCCCCCC(=N)N [Compound 3, heptadecanimidamide] |  | Ki [1]: 1 to 10 µM |
| CCCCCCCCCCCCC/C=C/CC(=N)N [Compound 4, (E)-heptadec-3-enimidamide] | > 10 µM |  |
| CCCCCCCCCCc1ccc(CCCC(=N)N)cc1 [Compound 5, 4-(4-decylphenyl)butanimidamide] | > 10 µM |  |
| CCCCCCCCCCc1ccc(/C=C/CC(=N)N)cc1 [Compound 6, (E)-4-(4-decylphenyl)but-3-enimidamide] | > 10 µM |  |
| CCCCCCCCc1ccc(CC[C@@H](N)C(=N)N)cc1 [Compound 8, (R)-2-amino-4-(4-octylphenyl)butanimidamide] | > 10 µM |  |
| CCCCCCCCCCCCc1ccc(-c2noc(C3(C(=N)N)CC3)n2)cc1 [Compound 11, 1-(3-(4-dodecylphenyl)-1,2,4-oxadiazol-5-yl) cyclopropanecarboximidamide] |  | Ki [1]: 1 to 10 µM |
| CCCCCCCCCCCCc1ccc(-c2noc(CC(=N)N)n2)cc1 [Compound 12, 2-(3-(4-dodecylphenyl)-1,2,4-oxadiazol-5-yl)acetimidamide] | > 10 µM |  |
| CCCCCCCCCCCc1cc(-c2noc(C3(C(=N)N)CC3)n2)ccc1OC [Compound 14, 1-(3-(4-methoxy-3-undecylphenyl)-1,2,4-oxadiazol-5-yl)cyclopropanecarboximidamide] |  | Ki [1]: < 1 µM |
| CCCCCCCCCCCCc1ccc(-c2coc(C(C)C(=N)N)n2)cc1 (stereo not shown) [Compound 18, 2-(4-(4-dodecylphenyl)oxazol-2-yl)propanimidamide] | > 10 µM |  |
| CCCCCCCCCCCCc1ccc(-c2coc(CC(=N)N)n2)cc1 [Compound 19, 2-(4-(4-dodecylphenyl)oxazol-2-yl)acetimidamide] | > 10 µM |  |
| CCCCCCCCCCCc1cc(-c2nnc(C3(C(=N)N)CC3)o2)c(OC)cc1OC [Compound 22, 1-(5-(2,4-dimethoxy-5-undecylphenyl)-1,3,4-oxadiazol-2-yl)cyclopropanecarboximidamide] | < 1 µM |  |
| CCCCCCCCCCCc1ccc(OC)c(-c2nnc(C3(C(=N)N)CC3)o2)c1 [Compound 24, 1-(5-(2-methoxy-5-undecylphenyl)-1,3,4-oxadiazol-2-yl)cyclopropanecarboximidamide] | < 1 µM |  |
| CCCCCCCCCCCc1cc(-c2nnc(C3(C(=N)N)CC3)o2)ccc1OC [Compound 27, 1-(5-(4-methoxy-3-undecylphenyl)-1,3,4-oxadiazol-2-yl)cyclopropanecarboximidamide] | < 1 µM |  |
| CCCCCCCCc1ccc(C(=O)NCCOC(=N)N)cc1 [Compound 33, 2-(4-octylbenzamido)ethyl carbamimidate] | > 10 µM |  |
| CCCCCCCCc1ccc([C@H]2CC[C@H](NC(=N)N)CC2)cc1 [Compound 34, 1-((1R,4R)-4-(4-octylphenyl)-cyclohexyl)guanidine] |  | Ki [1]: 1 to 10 µM |
| CCCCCCCCc1ccc(CNC(=O)C2(NC(=N)N)CC2)cc1 [Compound 35, 1-guanidino-N-(4-octylbenzyl) cyclopropanecarboxamide] | > 10 µM |  |
| CCCCCCCCCCCCc1ccc(NC(=O)C2(NC(=N)N)CC2)cc1 [Compound 36, N-(4-dodecylphenyl)-1-guanidinocyclopropane-carboxamide] | > 10 µM |  |
| N=C(N)N1CCC[C@H]1c1nc(-c2ccc(I)cc2)no1 [Compound 37, (S)-2-(3-(4-iodophenyl)-1,2,4-oxadiazol-5-yl)pyrrolidine-1-carboximidamide] | > 10 µM |  |
| N=C(N)N1CCC[C@H]1c1nc(-c2ccc(C#CC3CCCC3)cc2)no1 [Compound 38, (S)-2-(3-(4-(cyclopentylethynyl)phenyl)-1,2,4-oxadiazol-5-yl)pyrrolidine-1-carboximidamide] | > 10 µM |  |
| CCCCCCCCc1noc([C@@H]2CCCN2C(=N)N)n1 [Compound 39, (S)-2-(3-octyl-1,2,4-oxadiazol-5-yl)pyrrolidine-1-carboximidamide] | > 10 µM |  |
| CCCCCCCCCCCCc1noc([C@@H]2CCCN2C(=N)N)n1 [Compound 40, (S)-2-(3-dodecyl-1,2,4-oxadiazol-5-yl)pyrrolidine-1-carboximidamide] | > 10 µM |  |
| CCCCCCCCCCCCCCCCc1noc([C@@H]2CCCN2C(=N)N)n1 [Compound 41, (S)-2-(3-hexadecyl-1,2,4-oxadiazol-5-yl)pyrrolidine-1-carboximidamide] | > 10 µM |  |

| Compound | Ki [1, 4] | also measured |
| --- | --- | --- |
| CCCCCCCCc1ccc(-c2noc(C3(NC(=N)N)CC3)n2)cc1 [Compound 42, 1-(1-(3-(4-octylphenyl)-1,2,4-oxadiazol-5-yl)cyclopropyl)guanidine] | > 10 µM |  |
| CCCCCCCCCCCc1ccc(-c2noc(C3(NC(=N)N)CC3)n2)cc1 [Compound 43, 1-(1-(3-(4-undecylphenyl)-1,2,4-oxadiazol-5-yl)cyclopropyl)guanidine] | > 10 µM |  |
| CCCCCCCCCCCCc1ccc(-c2noc(C3(NC(=N)N)CC3)n2)cc1 [Compound 44, 1-(1-(3-(4-dodecylphenyl)-1,2,4-oxadiazol-5-yl)cyclopropyl)guanidine] | > 10 µM |  |
| CCCCCCCCc1ccc(-c2noc(CN(C)C(=N)N)n2)cc1 [Compound 45, 1-methyl-1-((3-(4-octylphenyl)-1,2,4-oxadiazol-5-yl)methyl)guanidine] | > 10 µM |  |
| CCCCCCCCc1ccc(-c2noc(CNC(=N)N)n2)cc1 [Compound 46, 1-((3-(4-octylphenyl)-1,2,4-oxadiazol-5-yl)methyl)guanidine] |  | Ki [1]: 1 to 10 µM |
| CCCCCCCCc1ccc(-c2noc([C@H](C)NC(=N)N)n2)cc1 [Compound 47, (S)-1-(1-(3-(4-octylphenyl)-1,2,4-oxadiazol-5-yl)ethyl)guanidine] |  | Ki [1]: 1 to 10 µM |
| CCCCCCCCc1ccc(-c2noc([C@@H](NC(=N)N)C(C)C)n2)cc1 [Compound 48, (S)-1-(2-methyl-1-(3-(4-octylphenyl)-1,2,4-oxadiazol-5-yl)propyl)guanidine] |  | Ki [1]: 1 to 10 µM |
| CCCCCCCCCCc1ccc(-c2noc([C@@H]3CCCN3C(=N)N)n2)cc1 [Compound 54, (S)-2-(3-(4-decylphenyl)-1,2,4-oxadiazol-5-yl)pyrrolidine-1-carboximidamide] |  | Ki [1]: 1 to 10 µM |
| CCCCCCCCCCCCc1ccc(-c2noc([C@@H]3CCCN3C(=N)N)n2)cc1 [Compound 55, (S)-2-(3-(4-dodecylphenyl)-1,2,4-oxadiazol-5-yl)pyrrolidine-1-carboximidamide] |  | Ki [1]: > 10 µM |
| CCCCCCc1ccc(-c2noc([C@@H]3CCCN3C(=N)N)n2)cc1 [Compound 56, (S)-2-(3-(4-hexylphenyl)-1,2,4-oxadiazol-5-yl)pyrrolidine-1-carboximidamide] |  | Ki [1]: > 10 µM |
| CCCCCCCCCCCCCCc1ccc(-c2noc([C@@H]3CCCN3C(=N)N)n2)cc1 [Compound 57, (S)-2-(3-(4-tetradecylphenyl)-1,2,4-oxadiazol-5-yl)pyrrolidine-1-carboximidamide] | > 10 µM |  |
| CCCCCCCCc1cccc(-c2noc([C@@H]3CCCN3C(=N)N)n2)c1 [Compound 58, (S)-2-(3-(3-octylphenyl)-1,2,4-oxadiazol-5-yl)pyrrolidine-1-carboximidamide] | > 10 µM |  |
| CCCCCCCCc1ccc(-c2noc([C@@H]3CCN(C(=N)N)C3)n2)cc1 [Compound 59, (R)-3-(3-(4-octylphenyl)-1,2,4-oxadiazol-5-yl)pyrrolidine-1-carboximidamide] | > 10 µM |  |
| N=C(N)N1CC[C@H]1c1nc(-c2ccc(-c3ccccc3)cc2)no1 [Compound 60, (S)-2-(3-([1,1′-biphenyl]-4-yl)-1,2,4-oxadiazol-5-yl)azetidine-1-carboximidamide] |  | Ki [1]: > 10 µM |
| CCCCCCc1ccc(-c2noc([C@@H]3CCN3C(=N)N)n2)cc1 [Compound 61, (S)-2-(3-(4-hexylphenyl)-1,2,4-oxadiazol-5-yl)azetidine-1-carboximidamide] | > 10 µM |  |
| CCCCCCCCCCc1ccc(-c2noc([C@@H]3CCN3C(=N)N)n2)cc1 [Compound 63, (S)-2-(3-(4-decylphenyl)-1,2,4-oxadiazol-5-yl)azetidine-1-carboximidamide] |  | Ki [1]: 1 to 10 µM |
| CCCCCCCCc1ccc(-c2noc([C@@H]3CCN3C(=N)NO)n2)cc1 [Compound 65, (S)-N-hydroxy-2-(3-(4-octylphenyl)-1,2,4-oxadiazol-5-yl)azetidine-1-carboximidamide] | > 10 µM |  |
| CCCCCCCCc1ccc(-c2noc(C3CN(C(=N)N)C3)n2)cc1 [Compound 66, 3-(3-(4-octylphenyl)-1,2,4-oxadiazol-5-yl)azetidine-1-carboximidamide] |  | Ki [1]: 1 to 10 µM |
| CCCCCCCCCCc1ccc(-c2noc(C3CN(C(=N)N)C3)n2)cc1 [Compound 67, 3-(3-(4-decylphenyl)-1,2,4-oxadiazol-5-yl)azetidine-1-carboximidamide] | > 10 µM |  |
| CCCCCCCCc1cccc(-c2noc(C[C@@H]3CCCN3C(=N)N)n2)c1 [Compound 74, (S)-2-((3-(3-octylphenyl)-1,2,4-oxadiazol-5-yl)methyl)pyrrolidine-1-carboximidamide] | > 10 µM |  |
| CCCCCCCCCCCCc1noc(C[C@@H]2CCCN2C(=N)N)n1 [Compound 76, (S)-2-((3-dodecyl-1,2,4-oxadiazol-5-yl)methyl)pyrrolidine-1-carboximidamide] | > 10 µM |  |
| N=C(N)N1CCC[C@H]1Cc1nc(-c2ccc(CS(=O)(=O)c3ccccc3)cc2)no1 [Compound 77, (S)-2-((3-(4-((phenylsulfonyl)methyl)phenyl)-1,2,4-oxadiazol-5-yl)methyl)pyrrolidine-1-carboximidamide] | > 10 µM |  |
| CCCCCCCCc1ccc(CCC(N)(CO)CO)cc1 [fingolimod, 2-amino-2-[2-(4-octylphenyl)ethyl]propane 1,3-diol] |  | hypertension (blood pressure rise) [2]: 2-3 mmHg |
| (S)-2-((3-(3-nonylphenyl)-1,2,4- oxadiazol-5-yl)methyl)pyrrolidine-1- carboximidamide [Compound 75] | > 10 µM | Ki [3]: > 10 µM |

Source: patent publication US9688668B2, “Long chain base sphingosine kinase inhibitors” (UNIVERSITY OF VIRGINIA PATENT FOUNDATION, priority 2012, dated 2017)
